Assay results reported in publication PMC12621043, “Un-LOK-ing a New Approach for Conformational Selective Targeting of STK10 (LOK)” (ACS Medicinal Chemistry Letters, 2025).

biological target: T1, PKMYT1A (Homo sapiens, UniProt Q99640); assay: DSF Tm panel; type: binding; conditions: 10 μM compound
T1 construct: purchased in-house DSF kinase panel (SGC-style construct names; the trailing letter is the construct ID)
T1 sequence (Q99640 75-362): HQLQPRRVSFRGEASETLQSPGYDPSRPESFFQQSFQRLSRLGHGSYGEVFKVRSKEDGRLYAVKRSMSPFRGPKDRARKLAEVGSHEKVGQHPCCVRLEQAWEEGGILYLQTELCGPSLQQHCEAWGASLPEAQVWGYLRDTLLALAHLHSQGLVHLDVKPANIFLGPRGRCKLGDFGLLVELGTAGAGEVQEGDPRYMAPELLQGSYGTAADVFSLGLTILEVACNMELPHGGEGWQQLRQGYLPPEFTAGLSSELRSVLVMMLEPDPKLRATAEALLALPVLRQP

Point of comparison: O=C(NCc1ccc(Cl)cc1Cl)Nc1ccc2cc1OCCOCCNc1ccn3ncc-2c3n1 [compound 20], ΔTm at 10 µM 1.6 °C. Against it:
- O=C(NCc1ccc(Cl)cc1)Nc1ccc2cc1OCCOCCNc1ccn3ncc-2c3n1 [compound 19] — lower, 1.4 °C
- O=C(NCc1ccc(Cl)cc1F)Nc1ccc2cc1OCCOCCNc1ccn3ncc-2c3n1 [compound 21] — higher, 1.9 °C
- Cc1cc(Cl)ccc1CNC(=O)Nc1ccc2cc1OCCOCCNc1ccn3ncc-2c3n1 [compound 23] — higher, 2.1 °C

biological target: T2, MAPK10A (Homo sapiens, UniProt P53779); assay: DSF Tm panel; type: binding; conditions: 10 μM compound
T2 construct: purchased in-house DSF kinase panel (SGC-style construct names; the trailing letter is the construct ID)
T2 sequence (P53779 39-402): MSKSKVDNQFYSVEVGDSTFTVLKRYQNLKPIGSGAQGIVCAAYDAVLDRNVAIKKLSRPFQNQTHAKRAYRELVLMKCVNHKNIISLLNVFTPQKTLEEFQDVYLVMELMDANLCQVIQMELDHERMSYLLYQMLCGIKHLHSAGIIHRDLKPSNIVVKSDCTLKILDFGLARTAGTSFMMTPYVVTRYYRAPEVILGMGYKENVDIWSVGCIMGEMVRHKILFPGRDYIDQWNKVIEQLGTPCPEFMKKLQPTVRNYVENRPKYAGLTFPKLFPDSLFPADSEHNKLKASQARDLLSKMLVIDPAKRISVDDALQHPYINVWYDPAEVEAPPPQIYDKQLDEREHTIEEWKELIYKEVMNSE

Point of comparison: O=C(NCc1ccc(Cl)cc1)Nc1ccc2cc1OCCOCCNc1ccn3ncc-2c3n1 [compound 19], ΔTm at 10 µM 0.8 °C. Against it:
- O=C(NCc1ccc(Cl)cc1Cl)Nc1ccc2cc1OCCOCCNc1ccn3ncc-2c3n1 [compound 20] — higher, 1.6 °C
- O=C(NCc1ccc(Cl)cc1F)Nc1ccc2cc1OCCOCCNc1ccn3ncc-2c3n1 [compound 21] — higher, 1.4 °C
- Cc1cc(Cl)ccc1CNC(=O)Nc1ccc2cc1OCCOCCNc1ccn3ncc-2c3n1 [compound 23] — higher, 1 °C

biological target: T3, PAK1A (Homo sapiens, UniProt Q13153); assay: DSF Tm panel; type: binding; conditions: 10 μM compound
T3 construct: purchased in-house DSF kinase panel (SGC-style construct names; the trailing letter is the construct ID)
T3 sequence (Q13153 249-545): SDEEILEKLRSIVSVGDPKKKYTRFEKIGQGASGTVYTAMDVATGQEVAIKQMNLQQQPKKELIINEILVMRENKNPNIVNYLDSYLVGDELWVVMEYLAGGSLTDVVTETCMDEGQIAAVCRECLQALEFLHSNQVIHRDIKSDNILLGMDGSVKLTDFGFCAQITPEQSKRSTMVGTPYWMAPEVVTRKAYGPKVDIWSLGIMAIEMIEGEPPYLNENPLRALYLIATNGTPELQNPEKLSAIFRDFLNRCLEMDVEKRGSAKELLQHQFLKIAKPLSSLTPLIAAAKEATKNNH

Point of comparison: O=C(NCc1ccc(Cl)cc1F)Nc1ccc2cc1OCCOCCNc1ccn3ncc-2c3n1 [compound 21], ΔTm at 10 µM 1 °C. Against it:
- O=C(NCc1ccc(Cl)cc1)Nc1ccc2cc1OCCOCCNc1ccn3ncc-2c3n1 [compound 19] — lower, 0.9 °C
- O=C(NCc1ccc(Cl)cc1Cl)Nc1ccc2cc1OCCOCCNc1ccn3ncc-2c3n1 [compound 20] — higher, 2.5 °C
- Cc1cc(Cl)ccc1CNC(=O)Nc1ccc2cc1OCCOCCNc1ccn3ncc-2c3n1 [compound 23] — higher, 2 °C

biological target: T4, EPHA5A (Homo sapiens, UniProt P54756); assay: DSF Tm panel; type: binding; conditions: 10 μM compound
T4 construct: purchased in-house DSF kinase panel (SGC-style construct names; the trailing letter is the construct ID)
T4 sequence (P54756 653-939): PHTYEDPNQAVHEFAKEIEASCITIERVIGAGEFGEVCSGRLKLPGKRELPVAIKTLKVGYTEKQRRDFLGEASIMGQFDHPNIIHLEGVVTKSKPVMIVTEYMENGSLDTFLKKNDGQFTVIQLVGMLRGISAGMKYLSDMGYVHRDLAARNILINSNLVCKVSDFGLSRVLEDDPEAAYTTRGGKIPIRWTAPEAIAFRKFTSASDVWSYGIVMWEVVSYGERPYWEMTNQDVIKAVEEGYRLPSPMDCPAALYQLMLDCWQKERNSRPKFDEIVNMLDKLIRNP

Point of comparison: O=C(NCc1ccc(Cl)cc1Cl)Nc1ccc2cc1OCCOCCNc1ccn3ncc-2c3n1 [compound 20], ΔTm at 10 µM 0.7 °C. Against it:
- O=C(NCc1ccc(Cl)cc1)Nc1ccc2cc1OCCOCCNc1ccn3ncc-2c3n1 [compound 19] — lower, 0.3 °C
- O=C(NCc1ccc(Cl)cc1F)Nc1ccc2cc1OCCOCCNc1ccn3ncc-2c3n1 [compound 21] — the same, 0.7 °C
- Cc1cc(Cl)ccc1CNC(=O)Nc1ccc2cc1OCCOCCNc1ccn3ncc-2c3n1 [compound 23] — higher, 1 °C

biological target: T5, MARK3A (Homo sapiens, UniProt P27448); assay: DSF Tm panel; type: binding; conditions: 10 μM compound
T5 construct: purchased in-house DSF kinase panel (SGC-style construct names; the trailing letter is the construct ID)
T5 sequence (P27448 56-307): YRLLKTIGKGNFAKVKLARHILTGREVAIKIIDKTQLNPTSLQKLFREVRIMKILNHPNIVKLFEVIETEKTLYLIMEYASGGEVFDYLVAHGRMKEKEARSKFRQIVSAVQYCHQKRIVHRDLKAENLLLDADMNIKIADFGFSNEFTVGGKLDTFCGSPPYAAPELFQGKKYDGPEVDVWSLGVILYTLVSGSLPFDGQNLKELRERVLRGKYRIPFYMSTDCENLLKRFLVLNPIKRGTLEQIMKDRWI

Point of comparison: O=C(NCc1ccc(Cl)cc1F)Nc1ccc2cc1OCCOCCNc1ccn3ncc-2c3n1 [compound 21], ΔTm at 10 µM 1.5 °C. Against it:
- O=C(NCc1ccc(Cl)cc1)Nc1ccc2cc1OCCOCCNc1ccn3ncc-2c3n1 [compound 19] — lower, 0.2 °C
- O=C(NCc1ccc(Cl)cc1Cl)Nc1ccc2cc1OCCOCCNc1ccn3ncc-2c3n1 [compound 20] — higher, 1.7 °C
- Cc1cc(Cl)ccc1CNC(=O)Nc1ccc2cc1OCCOCCNc1ccn3ncc-2c3n1 [compound 23] — higher, 2.4 °C

biological target: T6, DAPK1 (DAPK1A) (Homo sapiens, UniProt P53355); assay: DSF Tm panel; type: binding; conditions: 10 μM compound
T6 construct: purchased in-house DSF kinase panel (SGC-style construct names; the trailing letter is the construct ID)
T6 sequence (P53355 1-285): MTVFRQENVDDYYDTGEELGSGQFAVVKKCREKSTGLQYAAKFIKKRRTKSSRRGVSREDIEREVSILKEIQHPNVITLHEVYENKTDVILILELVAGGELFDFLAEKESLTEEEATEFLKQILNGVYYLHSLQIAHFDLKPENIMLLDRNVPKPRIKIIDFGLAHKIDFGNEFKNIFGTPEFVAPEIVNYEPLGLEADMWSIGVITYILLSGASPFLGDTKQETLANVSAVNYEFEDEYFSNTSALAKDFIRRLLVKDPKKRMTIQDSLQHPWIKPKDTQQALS

Point of comparison: O=C(NCc1ccc(Cl)cc1Cl)Nc1ccc2cc1OCCOCCNc1ccn3ncc-2c3n1 [compound 20], ΔTm at 10 µM 0.2 °C. Against it:
- O=C(NCc1ccc(Cl)cc1)Nc1ccc2cc1OCCOCCNc1ccn3ncc-2c3n1 [compound 19] — lower, -0.1 °C
- O=C(NCc1ccc(Cl)cc1F)Nc1ccc2cc1OCCOCCNc1ccn3ncc-2c3n1 [compound 21] — higher, 0.3 °C
- Cc1cc(Cl)ccc1CNC(=O)Nc1ccc2cc1OCCOCCNc1ccn3ncc-2c3n1 [compound 23] — lower, 0.1 °C

biological target: T7, MST4A (Homo sapiens, UniProt Q9P289); assay: DSF Tm panel; type: binding; conditions: 10 μM compound
T7 construct: purchased in-house DSF kinase panel (SGC-style construct names; the trailing letter is the construct ID)
T7 sequence (Q9P289 1-300): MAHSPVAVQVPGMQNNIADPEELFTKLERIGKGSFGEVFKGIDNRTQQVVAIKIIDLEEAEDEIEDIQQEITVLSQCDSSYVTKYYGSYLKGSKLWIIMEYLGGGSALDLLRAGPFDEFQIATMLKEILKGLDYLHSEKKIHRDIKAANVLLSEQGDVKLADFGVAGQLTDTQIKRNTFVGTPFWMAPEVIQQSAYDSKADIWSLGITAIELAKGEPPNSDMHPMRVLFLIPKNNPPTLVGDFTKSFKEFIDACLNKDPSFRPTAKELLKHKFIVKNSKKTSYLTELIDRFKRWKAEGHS

Point of comparison: Cc1cc(Cl)ccc1CNC(=O)Nc1ccc2cc1OCCOCCNc1ccn3ncc-2c3n1 [compound 23], ΔTm at 10 µM 2.1 °C. Against it:
- O=C(NCc1ccc(Cl)cc1)Nc1ccc2cc1OCCOCCNc1ccn3ncc-2c3n1 [compound 19] — lower, 1.1 °C
- O=C(NCc1ccc(Cl)cc1Cl)Nc1ccc2cc1OCCOCCNc1ccn3ncc-2c3n1 [compound 20] — lower, 0.5 °C
- O=C(NCc1ccc(Cl)cc1F)Nc1ccc2cc1OCCOCCNc1ccn3ncc-2c3n1 [compound 21] — lower, 1.1 °C

biological target: T8, MAPK15A (MAPK15HSD) (Homo sapiens, UniProt Q8TD08); assay: DSF Tm panel; type: binding; conditions: 10 μM compound
T8 sequence (Q8TD08 13-304 limits assumed): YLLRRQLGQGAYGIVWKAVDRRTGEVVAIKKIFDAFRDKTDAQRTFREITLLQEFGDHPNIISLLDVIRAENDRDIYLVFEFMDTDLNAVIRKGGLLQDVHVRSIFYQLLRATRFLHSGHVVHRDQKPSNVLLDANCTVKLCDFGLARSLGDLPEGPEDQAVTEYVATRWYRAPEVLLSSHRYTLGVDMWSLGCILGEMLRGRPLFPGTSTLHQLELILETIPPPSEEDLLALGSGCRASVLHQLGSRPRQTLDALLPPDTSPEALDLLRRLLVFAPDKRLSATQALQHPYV

Point of comparison: Cc1cc(Cl)ccc1CNC(=O)Nc1ccc2cc1OCCOCCNc1ccn3ncc-2c3n1 [compound 23], ΔTm at 10 µM 0.8 °C. Against it:
- O=C(NCc1ccc(Cl)cc1)Nc1ccc2cc1OCCOCCNc1ccn3ncc-2c3n1 [compound 19] — higher, 1.8 °C
- O=C(NCc1ccc(Cl)cc1Cl)Nc1ccc2cc1OCCOCCNc1ccn3ncc-2c3n1 [compound 20] — higher, 1.3 °C
- O=C(NCc1ccc(Cl)cc1F)Nc1ccc2cc1OCCOCCNc1ccn3ncc-2c3n1 [compound 21] — higher, 1.8 °C

biological target: T9, MAPK9A (Homo sapiens, UniProt P45984); assay: DSF Tm panel; type: binding; conditions: 10 μM compound
T9 construct: purchased in-house DSF kinase panel (SGC-style construct names; the trailing letter is the construct ID)
T9 sequence (P45984 7-364): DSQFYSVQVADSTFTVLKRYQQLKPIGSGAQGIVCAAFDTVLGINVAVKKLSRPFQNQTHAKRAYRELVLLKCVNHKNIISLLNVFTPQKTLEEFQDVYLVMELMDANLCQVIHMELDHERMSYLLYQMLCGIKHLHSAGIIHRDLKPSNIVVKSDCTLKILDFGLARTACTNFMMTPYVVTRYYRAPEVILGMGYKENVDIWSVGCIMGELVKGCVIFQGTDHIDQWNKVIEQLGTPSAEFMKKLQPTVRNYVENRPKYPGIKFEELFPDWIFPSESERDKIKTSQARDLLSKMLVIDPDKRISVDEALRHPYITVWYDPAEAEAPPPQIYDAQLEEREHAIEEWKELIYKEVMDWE

Point of comparison: O=C(NCc1ccc(Cl)cc1)Nc1ccc2cc1OCCOCCNc1ccn3ncc-2c3n1 [compound 19], ΔTm at 10 µM 0.3 °C. Against it:
- O=C(NCc1ccc(Cl)cc1Cl)Nc1ccc2cc1OCCOCCNc1ccn3ncc-2c3n1 [compound 20] — higher, 1.5 °C
- O=C(NCc1ccc(Cl)cc1F)Nc1ccc2cc1OCCOCCNc1ccn3ncc-2c3n1 [compound 21] — the same, 0.3 °C
- Cc1cc(Cl)ccc1CNC(=O)Nc1ccc2cc1OCCOCCNc1ccn3ncc-2c3n1 [compound 23] — higher, 2 °C

biological target: T10, DYRK2A (Homo sapiens, UniProt Q92630); assay: DSF Tm panel; type: binding; conditions: 10 μM compound
T10 construct: purchased in-house DSF kinase panel (SGC-style construct names; the trailing letter is the construct ID)
T10 sequence (Q92630 1-601): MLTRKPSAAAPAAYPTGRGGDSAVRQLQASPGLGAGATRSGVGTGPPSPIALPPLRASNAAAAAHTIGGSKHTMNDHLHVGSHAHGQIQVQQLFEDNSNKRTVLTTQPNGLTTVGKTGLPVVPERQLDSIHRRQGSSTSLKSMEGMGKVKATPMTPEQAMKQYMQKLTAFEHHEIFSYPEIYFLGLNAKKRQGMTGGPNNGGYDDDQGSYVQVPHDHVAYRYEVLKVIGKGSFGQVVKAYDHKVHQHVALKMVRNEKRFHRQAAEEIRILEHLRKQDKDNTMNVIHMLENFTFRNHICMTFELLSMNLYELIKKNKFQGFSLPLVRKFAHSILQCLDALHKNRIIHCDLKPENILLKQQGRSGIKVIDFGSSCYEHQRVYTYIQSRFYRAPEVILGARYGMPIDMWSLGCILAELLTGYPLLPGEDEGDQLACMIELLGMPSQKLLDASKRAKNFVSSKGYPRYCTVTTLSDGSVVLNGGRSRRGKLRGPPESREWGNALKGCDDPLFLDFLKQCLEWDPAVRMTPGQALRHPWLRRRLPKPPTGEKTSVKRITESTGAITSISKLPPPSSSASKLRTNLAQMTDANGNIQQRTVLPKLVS

Point of comparison: Cc1cc(Cl)ccc1CNC(=O)Nc1ccc2cc1OCCOCCNc1ccn3ncc-2c3n1 [compound 23], ΔTm at 10 µM 0.8 °C. Against it:
- O=C(NCc1ccc(Cl)cc1)Nc1ccc2cc1OCCOCCNc1ccn3ncc-2c3n1 [compound 19] — lower, 0.2 °C
- O=C(NCc1ccc(Cl)cc1Cl)Nc1ccc2cc1OCCOCCNc1ccn3ncc-2c3n1 [compound 20] — lower, 0.6 °C
- O=C(NCc1ccc(Cl)cc1F)Nc1ccc2cc1OCCOCCNc1ccn3ncc-2c3n1 [compound 21] — lower, 0.7 °C

biological target: T11, FESA (Homo sapiens, UniProt P07332); assay: DSF Tm panel; type: binding; conditions: 10 μM compound
T11 construct: purchased in-house DSF kinase panel (SGC-style construct names; the trailing letter is the construct ID)
T11 sequence (P07332 whole entry): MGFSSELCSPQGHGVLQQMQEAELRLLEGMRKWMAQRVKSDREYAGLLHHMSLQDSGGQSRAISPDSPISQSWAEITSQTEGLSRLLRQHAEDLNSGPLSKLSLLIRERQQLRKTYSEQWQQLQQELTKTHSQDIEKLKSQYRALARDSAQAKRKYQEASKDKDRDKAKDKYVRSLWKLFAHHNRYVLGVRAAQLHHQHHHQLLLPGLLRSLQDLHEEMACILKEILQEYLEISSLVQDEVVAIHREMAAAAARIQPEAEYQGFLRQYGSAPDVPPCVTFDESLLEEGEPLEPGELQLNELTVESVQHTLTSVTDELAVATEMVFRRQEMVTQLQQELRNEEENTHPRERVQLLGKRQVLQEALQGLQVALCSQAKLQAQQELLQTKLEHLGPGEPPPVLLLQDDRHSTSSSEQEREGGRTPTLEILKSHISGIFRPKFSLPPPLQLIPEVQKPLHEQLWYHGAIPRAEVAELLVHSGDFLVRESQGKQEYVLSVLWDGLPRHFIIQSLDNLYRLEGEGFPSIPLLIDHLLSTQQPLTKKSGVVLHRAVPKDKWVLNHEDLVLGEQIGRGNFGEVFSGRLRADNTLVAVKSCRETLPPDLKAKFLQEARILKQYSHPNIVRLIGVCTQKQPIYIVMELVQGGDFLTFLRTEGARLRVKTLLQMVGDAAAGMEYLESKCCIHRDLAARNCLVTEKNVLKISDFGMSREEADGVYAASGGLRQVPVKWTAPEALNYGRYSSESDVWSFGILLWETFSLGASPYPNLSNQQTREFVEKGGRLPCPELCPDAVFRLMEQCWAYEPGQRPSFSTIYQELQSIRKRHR

Point of comparison: Cc1cc(Cl)ccc1CNC(=O)Nc1ccc2cc1OCCOCCNc1ccn3ncc-2c3n1 [compound 23], ΔTm at 10 µM 0.5 °C. Against it:
- O=C(NCc1ccc(Cl)cc1)Nc1ccc2cc1OCCOCCNc1ccn3ncc-2c3n1 [compound 19] — lower, 0.4 °C
- O=C(NCc1ccc(Cl)cc1Cl)Nc1ccc2cc1OCCOCCNc1ccn3ncc-2c3n1 [compound 20] — the same, 0.5 °C
- O=C(NCc1ccc(Cl)cc1F)Nc1ccc2cc1OCCOCCNc1ccn3ncc-2c3n1 [compound 21] — higher, 0.6 °C

biological target: T12, MAPK1A (Homo sapiens, UniProt P28482); assay: DSF Tm panel; type: binding; conditions: 10 μM compound
T12 construct: purchased in-house DSF kinase panel (SGC-style construct names; the trailing letter is the construct ID)
T12 sequence (P28482 whole entry): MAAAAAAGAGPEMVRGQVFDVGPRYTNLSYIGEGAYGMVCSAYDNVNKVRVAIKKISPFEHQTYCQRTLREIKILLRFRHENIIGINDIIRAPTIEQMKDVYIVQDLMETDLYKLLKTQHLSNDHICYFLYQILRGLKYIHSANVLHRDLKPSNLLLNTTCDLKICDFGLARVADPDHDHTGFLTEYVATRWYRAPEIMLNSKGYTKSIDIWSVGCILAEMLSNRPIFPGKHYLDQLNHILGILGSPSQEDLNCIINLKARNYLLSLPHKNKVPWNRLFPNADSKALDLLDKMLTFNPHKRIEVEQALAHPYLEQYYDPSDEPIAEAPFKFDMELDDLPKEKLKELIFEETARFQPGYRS

Point of comparison: O=C(NCc1ccc(Cl)cc1F)Nc1ccc2cc1OCCOCCNc1ccn3ncc-2c3n1 [compound 21], ΔTm at 10 µM 0.3 °C. Against it:
- O=C(NCc1ccc(Cl)cc1)Nc1ccc2cc1OCCOCCNc1ccn3ncc-2c3n1 [compound 19] — lower, 0.1 °C
- O=C(NCc1ccc(Cl)cc1Cl)Nc1ccc2cc1OCCOCCNc1ccn3ncc-2c3n1 [compound 20] — higher, 0.8 °C
- Cc1cc(Cl)ccc1CNC(=O)Nc1ccc2cc1OCCOCCNc1ccn3ncc-2c3n1 [compound 23] — higher, 0.8 °C

biological target: T13, EPHA7A (Homo sapiens, UniProt Q15375); assay: DSF Tm panel; type: binding; conditions: 10 μM compound
T13 construct: purchased in-house DSF kinase panel (SGC-style construct names; the trailing letter is the construct ID)
T13 sequence (Q15375 590-899): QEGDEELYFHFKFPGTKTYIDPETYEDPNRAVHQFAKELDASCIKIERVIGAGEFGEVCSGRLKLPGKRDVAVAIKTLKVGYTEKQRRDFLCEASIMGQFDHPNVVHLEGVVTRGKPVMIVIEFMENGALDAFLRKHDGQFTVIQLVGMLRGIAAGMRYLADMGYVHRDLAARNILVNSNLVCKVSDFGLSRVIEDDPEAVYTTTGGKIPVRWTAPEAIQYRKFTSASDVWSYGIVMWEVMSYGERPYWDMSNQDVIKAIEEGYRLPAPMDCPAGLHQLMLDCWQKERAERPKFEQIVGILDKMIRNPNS

Point of comparison: Cc1cc(Cl)ccc1CNC(=O)Nc1ccc2cc1OCCOCCNc1ccn3ncc-2c3n1 [compound 23], ΔTm at 10 µM 1 °C. Against it:
- O=C(NCc1ccc(Cl)cc1)Nc1ccc2cc1OCCOCCNc1ccn3ncc-2c3n1 [compound 19] — lower, 0.4 °C
- O=C(NCc1ccc(Cl)cc1Cl)Nc1ccc2cc1OCCOCCNc1ccn3ncc-2c3n1 [compound 20] — the same, 1 °C
- O=C(NCc1ccc(Cl)cc1F)Nc1ccc2cc1OCCOCCNc1ccn3ncc-2c3n1 [compound 21] — higher, 1.9 °C

biological target: T14, CAMK2DA (Homo sapiens, UniProt Q13557); assay: DSF Tm panel; type: binding; conditions: 10 μM compound
T14 construct: purchased in-house DSF kinase panel (SGC-style construct names; the trailing letter is the construct ID)
T14 sequence (Q13557 11-309): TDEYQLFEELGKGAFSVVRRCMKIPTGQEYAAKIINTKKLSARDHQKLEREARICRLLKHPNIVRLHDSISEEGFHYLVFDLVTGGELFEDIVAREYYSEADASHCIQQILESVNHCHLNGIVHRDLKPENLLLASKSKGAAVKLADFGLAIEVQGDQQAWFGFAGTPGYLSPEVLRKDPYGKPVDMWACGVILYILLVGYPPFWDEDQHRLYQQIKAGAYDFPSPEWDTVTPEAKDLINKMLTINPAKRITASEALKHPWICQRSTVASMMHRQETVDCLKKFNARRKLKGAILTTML

Point of comparison: O=C(NCc1ccc(Cl)cc1Cl)Nc1ccc2cc1OCCOCCNc1ccn3ncc-2c3n1 [compound 20], ΔTm at 10 µM 0.9 °C. Against it:
- O=C(NCc1ccc(Cl)cc1)Nc1ccc2cc1OCCOCCNc1ccn3ncc-2c3n1 [compound 19] — lower, -0.1 °C
- O=C(NCc1ccc(Cl)cc1F)Nc1ccc2cc1OCCOCCNc1ccn3ncc-2c3n1 [compound 21] — lower, 0.8 °C
- Cc1cc(Cl)ccc1CNC(=O)Nc1ccc2cc1OCCOCCNc1ccn3ncc-2c3n1 [compound 23] — higher, 1.7 °C
